Source: US7087420B1, “Microbial β-glucuronidase genes, gene products and uses thereof” (Cambia, priority 1997, dated 2006)

How the values were obtained:
Millin rice plants = conditions: MUG 1 mM in water
Experimental: Seeds of T0 plants, which are the primary transformed plants, from pTANG86.1/2/3/4/5/6 (see Table 7 below) transformed plants, seeds of pCAM1301 (E. coli GUS with N358-Q change to remove N-glycosylation signal sequence) transformed plants, or untransformed Millin rice seeds are germinated in water containing 1 mM MUG or 50 μg/mL X-GlcA with or without hygromycin (for nontransformed plants). Resulting plants are observed for any reduced growth due to the presence of MUG, X-GlcA.

rice seeds = assay: Growth of rice plants germinated in water containing glucuronide substrate; assay type: in vivo; conditions: 50 μg/mL X-GlcA in germination water
[1] = biological target: T1, E. coli β-glucuronidase (E. coli GUS, GUS^Eco), wild type, SEQ ID NO: 23 (Escherichia coli, UniProt P05804); conditions: background statement, no concentration; cited from earlier work
T1 construct: pNPG substrate; functional homotetramer
T1 sequence (P05804 whole entry): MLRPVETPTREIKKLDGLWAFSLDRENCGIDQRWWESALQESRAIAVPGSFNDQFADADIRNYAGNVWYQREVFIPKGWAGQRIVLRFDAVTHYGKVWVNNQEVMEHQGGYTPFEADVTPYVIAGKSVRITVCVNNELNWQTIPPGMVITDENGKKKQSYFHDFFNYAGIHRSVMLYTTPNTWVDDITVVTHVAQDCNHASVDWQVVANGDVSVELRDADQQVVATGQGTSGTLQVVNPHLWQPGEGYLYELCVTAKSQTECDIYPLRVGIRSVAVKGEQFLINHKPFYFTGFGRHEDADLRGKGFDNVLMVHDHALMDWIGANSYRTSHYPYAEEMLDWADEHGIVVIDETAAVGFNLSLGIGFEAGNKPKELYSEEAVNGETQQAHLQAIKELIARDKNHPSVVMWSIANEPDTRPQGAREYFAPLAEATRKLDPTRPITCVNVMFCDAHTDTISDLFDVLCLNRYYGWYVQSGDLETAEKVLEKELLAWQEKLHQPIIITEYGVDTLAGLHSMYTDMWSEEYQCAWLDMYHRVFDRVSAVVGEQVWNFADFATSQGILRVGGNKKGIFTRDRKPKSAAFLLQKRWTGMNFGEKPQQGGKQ

[2] = system: Staphylococcus β-glucuronidase (GUS^Stp, Staph GUS), wild type, SEQ ID NO: 18 (DNA SEQ ID NO: 1); assay: Inhibition of Staphylococcus GUS by end product glucuronic acid; assay type: biochemical
Experimental: GUS^Stp enzyme activity is also resistant to inhibition by detergents. Enzyme activity assays are measured in the presence of varying amounts of SDS, Triton® X-100, or sarcosyl. […] In SDS, the enzyme still had substantial activity (60–75% activity). In addition, GUS^Stp is not inhibited by the end product of the reaction. Activity is determined normally or in the presence of 1 or 10 mM glucuronic acid. No inhibition is seen at either 1 or 10 mM glucuronic acid (FIG. 11). The enzyme is also assayed in the presence of organic solvents, dimethylformamide (DMF) and dimethylsulfoxide (DMSO), and high concentrations of NaCl (FIG. 12).

[3] = chromophore released from pNPG; cited from earlier work
[4] = system: Staphylococcus β-glucuronidase (GUS^Stp, Staph GUS), wild type, SEQ ID NO: 18 (DNA SEQ ID NO: 1); assay: Kinetics of pNPG hydrolysis by Staphylococcus GUS (spectrophotometric p-nitrophenol release); assay type: biochemical
Experimental: The thermal stability of GUS^Stp and E. coli GUS enzymes are determined at 65° C., using a substrate that can be measured by spectrophotometry, for example. One such substrate is p-nitrophenyl β-D-glucuronide (pNPG), which when cleaved by GUS releases the chromophore p-nitrophenol. At a pH greater than its pKa (approximately 7.15), the ionized chromophore absorbs light at 400–420 nm, therefore appears in the yellow range of visible light. Briefly, reactions are performed in 50 mM Na3PO4 pH 7.0, 10 mM 2-ME, 1 mM EDTA, 1 mM pNPG, and 0.1% Triton® X-100 at 37° C. The reactions are terminated by the addition of 0.4 ml of 2-amino-2-methylpropanediol, and absorbance measured at 415 nm against a substrate blank. Under these conditions, the molar extinction coefficient of p-nitrophenol is assumed to be 14,000: One unit is defined as the amount of enzyme that produces 1 nmole of product/min at 37° C.
Turnover number is calculated as nmoles of pNPG converted to p-nitrophenol per min per μg of purified protein.

yeast colonies = assay: Yeast colonies on X-GlcA expression plates containing tunicamycin; assay type: cell-based; conditions: tunicamycin 5, 10, and 20 μg/ml
Experimental: (§1) To determine whether the N-glycosylation site has a deleterious effect, on secretion, yeast colonies are streaked on expression plates containing X-GlcA and from 0.1 to 20 μg/ml of tunicamycin (to inhibit all N-glycosylation).

yeast strain InvSc1 = assay: Growth of transformed yeast colonies on expression plates with tunicamycin; conditions: tunicamycin 5, 10, and 20 μg/ml
Experimental: Yeast strain InvSc1 (mat α his3-Δ1 leu2 trp1-289 ura3-52) from Invitrogen (Carlsbad, Calif.) is transformed with the E. coli GUS and Staphylococcus GUS plasmids indicated in the table below. Transformants are plated on both selection media (minimal media supplemented with His, Leu, Trp, and 2% glucose as a carbon source to suppress the expression of the gene driven by the gal1 promoter) and expression media (media supplemented with His, Leu, Trp, 1% raffinose, 1% galactose as carbon source and with 50 μg/ml X-GlcA).
as §1

Cc1cc(=O)oc2cc(O[C@@H]3O[C@H](C(=O)O)[C@@H](O)[C@H](O)[C@H]3O)ccc12 [MUG, 4-methylumbelliferyl β-D-glucuronide]
Effect on roots of rice plants (reduced growth) (Millin rice plants): somewhat stunted

O=C(O)[C@H]1O[C@@H](Oc2c[nH]c3ccc(Br)c(Cl)c23)[C@H](O)[C@@H](O)[C@@H]1O [X-GlcA, 5-bromo-4-chloro-3-indolyl β-D-glucuronide]
toxic effects / reduced growth of plants (rice seeds): No toxic effects

O=C(O)[C@H]1OC(O)[C@H](O)[C@@H](O)[C@@H]1O (stereo partly drawn) [glucuronic acid]
Inhibition by end product (glucuronic acid) [1]: inhibited | Inhibition by glucuronic acid ([2]; 1 mM glucuronic acid (FIG. 11)): No inhibition | Inhibition by glucuronic acid ([2]; 10 mM glucuronic acid (FIG. 11)): No inhibition | Inhibition by glucuronic acid (summary statement) ([2]; unlike E. coli GUS, FIG. 11): not substantially inhibited

O=[N+]([O-])c1ccc(O)cc1 [p-nitrophenol]
pKa [3]: approximately 7.15

O=C(O)[C@H]1O[C@@H](Oc2ccc([N+](=O)[O-])cc2)[C@H](O)[C@@H](O)[C@@H]1O [pNPG, p-nitrophenyl β-D-glucuronide]
Vmax relative to E. coli GUS ([4]; GUS^Stp vs E. coli GUS, 37° C.): about the same | Turnover number relative to E. coli GUS ([4]; GUS^Stp vs E. coli GUS, 37° C. (FIG. 8)): approximately the same as E. coli GUS | Vmax ([4]; Staph GUS, substrate pNPG, 37° C.): 80 nmol/min/µg

tunicamycin [listing 1 of 2 here]
growth of yeast colonies (yeast colonies): do not grow

tunicamycin [listing 2 of 2 here]
Yeast colony growth (toxicity) (yeast strain InvSc1): do not grow
